The test system of test [1] is subjects with moderate or severe papulopustular rosacea. Nature of the test: Study 1 and Study 2: once-daily ivermectin 1% cream vs vehicle, first part, 12 weeks (Example 3). The class given is in vivo, human. On the procedure:
Both studies were conducted in accordance with the ethical principles of the Declaration of Helsinki and Good Clinical Practices, and in compliance with local regulatory requirements.
Each study had three parts. In the first part of the study, subjects with PPR were treated with ivermectin 1% cream (IVM 1%) or vehicle once daily at bedtime for 12 weeks. In the second part of the study, subjects initially treated with IVM 1% once daily at bedtime continued the same treatment, while subjects treated with the vehicle once daily switched to topical treatment with azelaic acid 15% gel twice daily, in the morning and evening. The third part of the study consisted of 4 weeks safety follow-up, without treatment. […]
Efficacy assessments at each visit were the IGA of disease severity, and inflammatory lesion counts (papules and pustules) on each of the five facial regions (forehead, chin, nose, right cheek, left cheek). Safety assessments included adverse events (AEs) throughout the study, local tolerance parameters (stinging/burning, dryness, itching) at each study visit evaluated on a 4-point scale [from 0 (none) to 3 (severe)], and laboratory parameters (hematology and biochemistry) measured before and after treatment. […]

Test [2] shares this test system. Kind of test: Ivermectin 1% cream vs metronidazole 0.75% cream, Period A, 16 weeks (Example 4). The class given is in vivo, human. Conditions: week 12 (highest difference). The source says: Study visits during Period A were as follows: a screening visit, and at baseline, weeks 3, 6, 9, 12 and 16.
Eligible subjects were 18 years or older, with moderate or severe papulopustular rosacea as noted by an IGA of 3 (“several small or large papules/pustules, moderate erythema”) or 4 (“numerous small and/or large papules/pustules, severe erythema”), and presenting with 15-70 facial inflammatory lesions (papules and pustules).
The subjects were instructed to maintain a consistent lifestyle throughout the study regarding rosacea triggers (i.e. avoiding environmental factors, certain foods, and excessive sun exposure).
Efficacy assessments at each visit were inflammatory lesion counts (papules and pustules) counted on five facial regions (forehead, chin, nose, right cheek, left cheek), and the Investigator's Global Assessment (IGA) of disease severity. Safety assessments included adverse events (AEs) throughout the study, local tolerance parameters (stinging/burning, dryness, itching) at each visit evaluated on a 4-point scale (from 0 (none) to 3 (severe)), and laboratory parameters measured at baseline, weeks 9 and 16. Other assessments included the subject's evaluation of rosacea improvement compared to their condition at baseline, and subject's appreciation questionnaire at the end of the study (regarding satisfaction with the study drug). […]

With “5-O-demethyl-22,23-dihydroavermectin A1a plus 5-O-demethyl-25-de(1-methylpropyl)-25-(1-methylethyl)-22,23-dihydroavermectin A1a [ivermectin]”, the “median reduction from baseline in inflammatory lesion counts” value is “about 30%” in test [1] (Study 1, week 2) and 27.3% in test [1] (Study 2, week 2). Also, in test [2], the “difference in IGA success rate, ivermectin superior to metronidazole” value stood at 14.9%.

The values above are taken from patent publication US9089587B2, “Treatment of papulopustular rosacea with ivermectin” (Galderma S.A., priority 2013, dated 2015).
